From article PMC7926936, “YM155 Inhibits NleB and SseK Arginine Glycosyltransferase Activity” (Pathogens, 2021)

Tests used:
[1] = biological target: SseK1 (Salmonella enterica, UniProt A0A0H3NK84); experiment: biochemical
[2] = biological target: NleB (Citrobacter rodentium, UniProt A0A482PDI9); experiment: biochemical
Chain of NleB (A0A482PDI9 whole entry, looked up): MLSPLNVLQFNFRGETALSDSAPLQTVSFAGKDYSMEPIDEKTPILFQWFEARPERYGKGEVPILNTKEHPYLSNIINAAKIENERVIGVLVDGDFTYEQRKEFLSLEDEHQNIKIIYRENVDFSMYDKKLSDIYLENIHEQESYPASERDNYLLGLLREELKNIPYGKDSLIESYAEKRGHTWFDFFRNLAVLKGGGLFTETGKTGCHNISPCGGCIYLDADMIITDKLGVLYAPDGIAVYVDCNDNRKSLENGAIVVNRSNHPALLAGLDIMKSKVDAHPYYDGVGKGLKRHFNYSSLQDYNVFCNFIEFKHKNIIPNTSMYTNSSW

Chain of SseK1 (A0A0H3NK84 whole entry, looked up): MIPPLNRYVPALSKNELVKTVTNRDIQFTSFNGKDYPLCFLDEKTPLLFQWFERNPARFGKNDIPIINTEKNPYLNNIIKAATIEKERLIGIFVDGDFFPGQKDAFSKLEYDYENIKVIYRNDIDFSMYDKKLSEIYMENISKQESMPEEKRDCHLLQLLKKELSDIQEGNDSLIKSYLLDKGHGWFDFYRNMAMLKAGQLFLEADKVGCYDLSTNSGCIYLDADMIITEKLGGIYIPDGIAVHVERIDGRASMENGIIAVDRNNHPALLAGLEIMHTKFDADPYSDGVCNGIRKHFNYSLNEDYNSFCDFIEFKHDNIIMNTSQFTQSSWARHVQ

SMILES: COCCn1c2c([n+](Cc3cnccn3)c1C)C(=O)c1ccccc1C2=O [YM155]
- IC50 [1]: ~2000 nM
- IC50 [2]: ~2000 nM
